In brackets after ≈: the same amount, converted by molar mass.
Assays:
[1] = tested on: KPC-expressing Enterobacteriaceae (n = 77); assay: organism not typed; assay type: cell-based
[2] = tested on: OXA-48-expressing Enterobacteriaceae (n = 39); assay: Broth microdilution MIC, ceftibuten/Compound 2 vs IV comparators
[3] = Metabolic stability in intestinal S9; assay type: in vitro ADME, beagle dog; conditions: beagle, intestinal S9; Dog; test conc. 3 μM
[4] = Single ascending dose pharmacokinetics, Solutol HS-15:Water (20:80); assay type: in vivo, Cynomolgus monkeys; conditions: cynomolgus monkey, plasma, iv, 1 mg/kg
Procedure: (§1) This study included dose concentrations ranging from 2-120 mg/mL.

[5] = Metabolic stability in plasma; assay type: in vitro ADME; conditions: cynomolgus, Monkey, test conc. 3 μM
[6] = tested on: four beta-lactamase expressing Enterobacteriaceae (1 KPC, 1 p99, 1 CTX-M-15, and 1 OXA-48); assay: Time-kill kinetic analyses; assay type: cell-based; conditions: Compound 2 fixed at 4 μg/mL, 24 hours
Procedure: Activity was determined against four beta-lactamase expressing Enterobacteriaceae (1 KPC, 1 p99, 1 CTX-M-15, and 1 OXA-48). […] Macrodilution tubes were incubated with shaking and bacterial amounts were quantified at 0, 2, 4, 6, 8, and 24 hours by limiting dilutions. Amoxicillin/clavulanic acid (2:1) was used as a comparator oral antibacterial.

[7] = Metabolic stability in intestinal S9; assay type: in vitro ADME; conditions: intestinal S9; Human; test conc. 3 μM
[8] = Metabolic stability in intestinal S9; assay type: in vitro ADME, cynomolgus monkey; conditions: cynomolgus, intestinal S9; Monkey; test conc. 3 μM
[9] = Single ascending dose pharmacokinetics, Solutol HS-15:Water (20:80); assay type: in vivo, Sprague-Dawley rats; conditions: male, Sprague-Dawley, rat, plasma, iv, 10 mg/kg
Procedure: as §1

[10] = target: T1, KPC-2 (Klebsiella pneumoniae, UniProt Q9F663); assay: Beta-lactamase enzyme inhibition (IC50); assay type: biochemical
T1 construct: expressed as native untagged proteins; made in house; host or cells: E. coli BL21(DE3)

[11] = target: T2, CMY-2 (Klebsiella pneumoniae, UniProt Q48434); assay: Beta-lactamase enzyme inhibition (IC50); assay type: biochemical
T2 construct: expressed as native untagged proteins; made in house; host or cells: E. coli BL21(DE3)

[12] = Single dose plasma pharmacokinetics (fasted and non-fasted); assay type: in vivo, Beagle dogs; conditions: male, Beagle, dog, iv, 5 mg/kg
[13] = Metabolic stability in liver S9; assay type: in vitro ADME, cynomolgus monkey; conditions: cynomolgus, liver S9; Monkey; test conc. 3 μM
[14] = Metabolic stability in intestinal S9; assay type: in vitro ADME, CD-1 mouse; conditions: CD-1, intestinal S9; Mouse; test conc. 3 μM
[15] = Metabolic stability in plasma; assay type: in vitro ADME; conditions: plasma; Human; test conc. 3 μM
[16] = Metabolic stability in liver S9; assay type: in vitro ADME, beagle dog; conditions: beagle, liver S9; Dog; test conc. 3 μM
[17] = target: T1, KPC-2; assay type: biochemical
Procedure: (§2) Assays (200 μl final volume) were performed in PBS in triplicate using 96-well microtiter plates. Cephalothin was used as the substrate for p99 AmpC and CTX-M-15 (50 μM for p99 AmpC; 75 μM for CTX-M-15) and reactions were initiated by addition of enzyme (0.2 nM p99 AmpC; 3 nM CTX-M-15). The decrease in the absorbance at λ260 nm was recorded continuously on a BioTek Powerwave XS2 microplate reader. […] SHV-5 reactions were initiated with 40 nM enzyme, using cefotaxime (100 μM) as the substrate. […] For KPC-2, imipenem (75 μM) was used as the substrate, and reactions initiated with 3 nM enzyme. Reaction progress was monitored by measuring the reduction in absorbance at λ300 nm in continuous fashion. […] Time courses for reaction progress were fit to the following equation, using Prism 7.04 (GraphPad Software, LaJolla, USA) to obtain kobs:
(§3) Off-rates for Compound 2 with the various beta-lactamases were determined by jump dilution experiments, performed in triplicate. Enzyme and inhibitor were incubated at room temperature for 10 minutes. Enzyme:inhibitor complexes were then diluted 800-fold into reaction buffer (50 mM Hepes, pH 7.0, 0.1 mg/ml BSA), and 20 μL of the diluted reaction immediately added to 180 μl of 110 μM nitrocefin in a 96-well microtiter plate, and the absorbance at λ 486 nm measured continuously on a BioTek Powerwave XS2 microplate reader. The resulting progress curves were fit to a single exponential, from which koff was derived. Half-life was determined using:
(§4) To determine Ki, plots of the inhibitor concentration versus inverse the initial velocity were fit to a linear equation, and the observed Ki corrected for substrate concentration and affinity by: […]

[18] = target: T3, CTX-M-15 (Escherichia coli, UniProt Q9EXV5); assay type: biochemical
T3 construct: expressed as native untagged proteins; made in house; host or cells: E. coli BL21(DE3)
Procedure: as §2, §3, §4

[19] = target: T4, SHV-5 (Klebsiella pneumoniae, UniProt P0A3M1); assay type: biochemical
T4 construct: expressed as native untagged proteins; made in house; host or cells: E. coli BL21(DE3)
Procedure: as §2, §3, §4

[20] = target: T4, SHV-5; assay: Beta-lactamase enzyme inhibition (IC50); assay type: biochemical
[21] = Single ascending dose pharmacokinetics, Solutol HS-15:Water (10:90); assay type: in vivo, Beagle dogs; conditions: beagle, dog, plasma, iv, 10 mg/kg
[22] = target: T3, CTX-M-15; assay: Beta-lactamase enzyme inhibition (IC50); assay type: biochemical
[23] = Metabolic stability in liver S9; assay type: in vitro ADME; conditions: liver S9; Human; test conc. 3 μM

With `Nc1nc(/C(=C/CC(=O)O)C(=O)N[C@@H]2C(=O)N3C(C(=O)O)=CCS[C@H]23)cs1` [Ceftibuten, ceftibuten, reference compound] the “Number of strains at MIC value 0.5 mg/L” value ([1]; KPC-expressing (n = 77)) was 2, the “Number of strains at MIC value 1 mg/L” value ([1]; KPC-expressing (n = 77)) was 2 and the “Number of strains at MIC value 2 mg/L” value ([1]; KPC-expressing (n = 77)) was 4. The “Number of strains at MIC value 4 mg/L” value ([1]; KPC-expressing (n = 77)) was 7, the “Number of strains at MIC value 8 mg/L” value ([1]; KPC-expressing (n = 77)) was 13 and the “Number of strains at MIC value 16 mg/L” value ([1]; KPC-expressing (n = 77)) was 24. For the same compound, the “Number of strains at MIC value […]” value ([1]; KPC-expressing (n = 77)) was 0, the “Number of strains at MIC value ≤0.06 mg/L” value ([1]; KPC-expressing (n = 77)) was 0 and the “Number of strains at MIC value ≥32 mg/L” value ([1]; KPC-expressing (n = 77)) was 25. For the same compound, the MIC90 ([1]; iv) was at least 32 mg/L, the MIC50 [2] was 16 mg/L (≈ 39 µM) and the MIC90 [2] was at least 32 mg/L.
Work on `CCC(=O)N[C@H]1Cc2cccc(C(=O)O)c2OB1O` [Compound 2, (R)-2-hydroxy-3-propionamido-3,4-dihydro-2H-benzo[e][1,2]oxaborinine-8-carboxylic acid] yielded a half-life at 3 μM [3] of over 2 h, an AUC(0-inf) [4] of 10 µg·h/mL and a Cmax [4] of 26 µg/mL. For the same compound, the half-life at 3 μM [5] was over 2 h, the “rescue of ceftibuten to cidality in time-kill” value [6] was “able to rescue ceftibuten to a cidal endpoint through 24 hours” and the half-life at 3 μM [7] was over 2 h. For the same compound, the half-life at 3 μM [8] was over 2 h, the AUC(0-inf) [9] was 6.7 µg·h/mL and the Cmax [9] was 23.7 µg/mL. For the same compound, the IC50 [10] was 0.08 µM, the IC50 [11] was 0.014 µM and the AUC(0-inf) [12] was 25.5 µg·h/mL. For the same compound, the Cmax [12] was 22.4 µg/mL, the half-life at 3 μM [13] was over 2 h and the half-life at 3 μM [14] was over 2 h. It also gave a half-life at 3 μM [15] of over 2 h, a half-life at 3 μM [16] of over 2 h and a Ki [17] of 0.11 µM. The “k−2” value [17] was 2.5 ± 0.1 10^−4 s^−1, the t1/2 [17] was 0.767 ± 0.0333 h and the Ki [18] was 0.01 µM. For the same compound, the “k−2” value [18] was 4.5 ± 0.1 10^−4 s^−1, the t1/2 [18] was 0.433 ± 0.01 h and the Ki [19] was 0.041 µM. The “k−2” value [19] was 12.7 ± 0.07 10^−4 s^−1, the t1/2 [19] was 6.5 ± 0.04 min and the IC50 [20] was 0.368 µM. It also gave an AUC(0-inf) [21] of 39.3 µg·h/mL, a Cmax [21] of 54.5 µg/mL and an IC50 [22] of 0.018 µM. It also gave a half-life at 3 μM [23] of over 2 h.

— patent US12544395B2, “Combination compositions comprising a beta-lactamase inhibitor and uses thereof” (priority 2018, dated 2026)
